For the series, the system named is Human Heme Oxygenase-1 (HMOX-1). Description: ELISA assay to measure human heme oxygenase-1 (HMOX-1) in HepG2 lysate. In kind it is cell-based. The note with it: for EC50: human HMOX1 protein level in HepG2 lysate, * = average of 2 or more EC50 determinations, NA = Not Active, read-out: EC50. As for the experimental part: Example 143. ELISA Assay to Measure Human Heme Oxygenase-1 (HMOX-1) in HepG2 lysate
Reagents and Technical Notes:
ELISA capture antibody, standard HO-1, detection antibody and streptavidin HRP were supplied in the DuoSet IC Human total HO-1 ELISA from R&D systems (DYC3776-2). The substrate cocktail was KPL LumiGLO reserve Chemiluminescent Substrate (54-71-00). PBS was Corning Cellgro Cell Culture (21-040-CV). 10×PBS+0.05% tween20 (PBST) was from KPL.
All incubations of the plate were at room temperature (20° C.) in a closed drawer.
The ELISA plate was processed manually. All loadings were with a multichannel pipet. Plates were emptied by shaking into the sink and tapping onto paper towels to remove any remaining reagent. Plate washing was accomplished by loading all wells with PBS+0.05% tween20 (PBST) using a squirt bottle, shaking the PBST out and tapping the plate onto paper towels.
Preparation of the ELISA Plate:
• 1. anti-HO-1 capture antibody was 1440 μg/ml after reconstitution in PBS. This antibody was diluted to 8 μg/ml in PBS and 50 μl per well was added to a 384 well greiner “lumitrac 200” plate. Incubated overnight. • 2. The plate was emptied and 100 μl PBS+1% BSA added to all wells. Incubated 90 minutes at room temperature. Preparation of HepG2 Lysate: • 1. Cells were cultured in a 96-well tissue culture plate washed with PBS and then the plate frozen at −70° C. overnight. Plates were allowed to warm to ice temperature in an ice bucket. 20 μl of PBS, 0.5% Triton X100, 1 mM EDTA with 1×HALT™ protease inhibitors was added to each well and the plates incubated on ice for 1 hour. • 2. The lysates were frozen at −20° C. overnight. Measurement of HMOX1 (“HO-1”) • 1. In a polypropylene 384 well plate, human HO-1 (after reconstitution in PBS+0.5% Triton+1 mM EDTA) was serially diluted from 20 ng/ml 2-fold in PBS+0.5% triton-X100, 1 mM EDTA to make a 12-point standard curve including a zero point. • 2. In a polypropylene 96 well plate, HepG2 lysate was diluted 1 to 20 in Diluent #4 from DUOSET kit in which the assay standard is also diluted. • 3. The PBS+1% BSA was emptied from the ELISA plate and 30 μl of all samples and standards were added (duplicates recommended). The plate was incubated 90 minutes. • 4. Emptied plate and washed 4 times with PBST. • 5. Diluted HO-1 detection antibody to 200 ng/ml in PBS+1% BSA and added 30 μl to all wells. Incubated 90 minutes. • 6. Emptied plate and washed 4 times with PBST. • 7. Added 30 μl streptavidin HRP at 1/200 in PBS+1% BSA (stock streptavidin concentration not specified) to all wells. Incubated 30 minutes. • 8. Emptied plate and washed 4 times with PBST. • 9. Diluted Lumiglo reserve reagent two parts buffer to one part lumiglo substrate. Added 30 μl to all wells. Incubated 5 minutes. • 10. Measured chemiluminescence on spectramax M5 using 150 ms integration.
Table 1 below lists EC50 and fold changes of human HMOX1 protein levels relative to DMSO control upon treatment with representative compounds.
In general terms: ELISA stands for enzyme-linked immunosorbent assay.

By EC50 is commonly meant the concentration at which the effect is half-maximal. On to `Cn1c(Nc2nc3ccccc3o2)nc2cc(C(=O)O)ccc21` [Example 1h, 2-(benzo[d]oxazol-2-ylamino)-1-methyl-1H-benzo[d]imidazole-5-carboxylic acid], for which the EC50 amounted to 4.4 µM.
For `COCCNC(=O)c1ccc2c(c1)nc(Nc1nc3ccccc3o1)n2C` [Example 1i, 2-(benzo[d]oxazol-2-ylamino)-N-(2-methoxyethyl)-1-methyl-1H-benzo[d]imidazole-5-carboxamide], the EC50 turned out to be 0.8 µM.
As for `COCCNC(=O)c1ccc2c(c1)nc(Nc1nc3ccc(OC(F)(F)F)cc3s1)n2C1CCOCC1` [Example 2e, N-(2-methoxyethyl)-1-(tetrahydro-2H-pyran-4-yl)-2-((6-(trifluoromethoxy)benzo[d]thiazol-2-yl)amino)-1H-benzo[d]imidazole-5-carboxamide], the EC50 came out at 3.8 µM.
For `CN1CCC(n2c(Nc3nc4ccc(OC(F)(F)F)cc4s3)nc3cc(C(=O)O)ccc32)CC1` [Example 3d, 1-(1-methylpiperidin-4-yl)-2-((6-(trifluoromethoxy)benzo[d]thiazol-2-yl)amino)-1H-benzo[d]imidazole-5-carboxylic acid], the EC50 amounted to 9.2 µM.
`COCCNC(=O)c1ccc2c(c1)nc(Nc1nc3ccc(OC(F)(F)F)cc3s1)n2C1CCN(C)CC1` [Example 3e, N-(2-methoxyethyl)-1-(1-methylpiperidin-4-yl)-2-((6-(trifluoromethoxy)benzo[d]thiazol-2-yl)amino)-1H-benzo[d]imidazole-5-carboxamide]: the EC50 came to 1.1 µM.
As for `CN1CCC(n2c(Nc3nc4ccc(OC(F)(F)F)cc4s3)nc3cc(C(=O)O)ccc32)C1` (centres unmarked) [Example 4d, 1-(1-methylpyrrolidin-3-yl)-2-((6-(trifluoromethoxy)benzo[d]thiazol-2-yl)amino)-1H-benzo[d]imidazole-5-carboxylic acid], the EC50 is 4.7 µM.
As for `COCCNC(=O)c1ccc2c(c1)nc(Nc1nc3c(s1)COCC3)n2C` [Example 11, 2-((6,7-dihydro-4H-pyrano[4,3-d]thiazol-2-yl)amino)-N-(2-methoxyethyl)-1-methyl-1H-benzo[d]imidazole-5-carboxamide], the EC50 is 6.6 µM.
For `COCCNC(=O)c1ccc2c(c1)nc(Nc1nc3ccccc3[nH]1)n2C` [Example 12, 2-((1H-benzo[d]imidazol-2-yl)amino)-N-(2-methoxyethyl)-1-methyl-1H-benzo[d]imidazole-5-carboxamide], the EC50 turned out to be 4.5 µM.
For `Cn1c(Nc2nc3cc(C(=O)O)ccc3n2C)nc2cc(OC(F)(F)F)ccc21` [Example 15, 1-methyl-2-((1-methyl-5-(trifluoromethoxy)-1H-benzo[d]imidazol-2-yl)amino)-1H-benzo[d]imidazole-5-carboxylic acid], the EC50 came to 5.3 µM.
Consider `CN(C)CCNC(=O)c1ccc2c(c1)nc(Nc1nc3ccccc3o1)n2C` [Example 21, 2-(benzo[d]oxazol-2-ylamino)-N-(2-(dimethylamino)ethyl)-1-methyl-1H-benzo[d]imidazole-5-carboxamide], for which the EC50 was 1.1 µM.
`Cn1c(Nc2nc3ccc(OC(F)(F)F)cc3o2)nc2cc(C(=O)NCCS(C)(=O)=O)ccc21` [Example 54, 1-methyl-N-(2-(methylsulfonyl)ethyl)-2-((6-(trifluoromethoxy)benzo[d]oxazol-2-yl)amino)-1H-benzo[d]imidazole-5-carboxamide]: the EC50 stood at 3.2 µM.
With `COCCOc1ccc2nc(Nc3nc4cc(C(=O)O)ccc4n3C)oc2c1` [Example 55, 2-((6-(2-methoxyethoxy)benzo[d]oxazol-2-yl)amino)-1-methyl-1H-benzo[d]imidazole-5-carboxylic acid], the EC50 is 4.5 µM. Also, the “Maximum Fold induction” value (fold change of human HMOX1 protein level relative to DMSO control, HepG2) worked out at 15 fold.
Take `CC(C)c1ccc2nc(Nc3nc4cc(C(=O)O)ccc4n3C)oc2c1` [Example 59, 2-((6-isopropylbenzo[d]oxazol-2-yl)amino)-1-methyl-1H-benzo[d]imidazole-5-carboxylic acid]: the EC50 turned out to be 3.3 µM.

Values taken from patent US10766888B1, “HMOX1 inducers” (Mitobridge Inc., priority 2019, dated 2020).
